Source: PubChem BioAssay (NCI)
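Results reflect a 48-hour exposure of cells in 96-well plates to compound at five concentrations. GI50 marks 50% less growth. The concentration for full growth arrest is given as TGI.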

Legend:
Test in all cases: growth of human tumour cells (NCI), 48 h
[1] = system: SK-OV-3 ovarian
[2] = system: UACC-62 melanoma
[3] = system: 786-0 renal
[4] = system: OVCAR-8 ovarian
[5] = system: MCF7 breast
[6] = system: K-562 leukemia
[7] = system: T-47D breast
[8] = system: DU-145 prostate
[9] = system: SNB-75 CNS
[10] = system: HCT-116 colon
[11] = system: NCI-H460 lung
[12] = system: SK-MEL-5 melanoma
[13] = system: KM12 colon
[14] = system: MALME-3M melanoma
[15] = system: HT29 colon
[16] = system: MDA-MB-435
[17] = system: HCC-2998 colon
[18] = system: OVCAR-5 ovarian
[19] = system: SW-620 colon
[20] = system: MOLT-4 leukemia
[21] = system: NCI-H23 lung
[22] = system: A498 renal
[23] = system: NCI/ADR-RES ovarian
[24] = system: U251 CNS
[25] = system: SF-539 CNS
[26] = system: SF-295 CNS
[27] = system: PC-3 prostate
[28] = system: SN12C renal
[29] = system: EKVX NSCLC
[30] = system: SNB-19 CNS
[31] = system: HL-60(TB) leukemia
[32] = system: RXF 393 renal
[33] = system: NCI-H522 lung
[34] = system: UO-31 renal
[35] = system: HOP-62 NSCLC
[36] = system: IGROV1 ovarian
[37] = system: A549 NSCLC
[38] = system: SR leukemia
[39] = system: OVCAR-3 ovarian
[40] = system: SF-268 CNS
[41] = system: LOX IMVI melanoma
[42] = system: BT-549 breast
[43] = system: MDA-MB-231 breast
[44] = system: HOP-92 NSCLC
[45] = system: TK-10 renal
[46] = system: UACC-257 melanoma
[47] = system: M14 melanoma
[48] = system: OVCAR-4 ovarian
[49] = system: HCT-15 colon
[50] = system: SK-MEL-28 melanoma
[51] = system: SK-MEL-2 melanoma
[52] = system: HS 578T breast
[53] = system: RPMI-8226 leukemia
[54] = system: NCI-H226 lung
[55] = system: ACHN renal

**Q.** Which results are given for `CSc1ccc(SC2c3ccc(C)cc3Oc3nc(N)c(C#N)c(N)c32)cc1` (stereo not given)?
**A.** GI50 [1]: 1830 nM; TGI [1]: 3290 nM; GI50 [2]: 1610 nM; TGI [2]: 2970 nM; GI50 [3]: 1680 nM; TGI [3]: 3070 nM; GI50 [4]: 1790 nM; TGI [4]: 3180 nM; GI50 [5]: 1840 nM; TGI [5]: 4340 nM; GI50 [6]: 2960 nM; TGI [6]: 9910 nM; GI50 [7]: 1900 nM; TGI [7]: 4840 nM; GI50 [8]: 1850 nM; TGI [8]: 3260 nM; GI50 [9]: 2200 nM; TGI [9]: 7340 nM; GI50 [10]: 1920 nM; TGI [10]: 3650 nM; GI50 [11]: 2030 nM; TGI [11]: 4070 nM; GI50 [12]: 1760 nM; TGI [12]: 3150 nM; GI50 [13]: 1960 nM; TGI [13]: 3650 nM; GI50 [14]: 1540 nM; TGI [14]: 3010 nM; GI50 [15]: 2110 nM; TGI [15]: 4370 nM; GI50 [16]: 1770 nM; TGI [16]: 3270 nM; GI50 [17]: 1780 nM; TGI [17]: 3280 nM; GI50 [18]: 1710 nM; TGI [18]: 3240 nM; GI50 [19]: 2030 nM; TGI [19]: 4280 nM; GI50 [20]: 2390 nM; TGI [20]: 6050 nM; GI50 [21]: 1690 nM; TGI [21]: 3220 nM; GI50 [22]: 2050 nM; TGI [22]: 3950 nM; GI50 [23]: 2220 nM; TGI [23]: 5460 nM; GI50 [24]: 1690 nM; TGI [24]: 3050 nM; GI50 [25]: 1560 nM; TGI [25]: 2980 nM; GI50 [26]: 1580 nM; TGI [26]: 2970 nM; GI50 [27]: 1640 nM; TGI [27]: 3220 nM; GI50 [28]: 1590 nM; TGI [28]: 2940 nM; GI50 [29]: 1600 nM; TGI [29]: 2990 nM; GI50 [30]: 1770 nM; TGI [30]: 3160 nM; GI50 [31]: 2120 nM; TGI [31]: 4420 nM; GI50 [32]: 1710 nM; TGI [32]: 3120 nM; GI50 [33]: 1700 nM; TGI [33]: 3130 nM; GI50 [34]: 1200 nM; TGI [34]: 2430 nM; GI50 [35]: 1730 nM; TGI [35]: 3220 nM; GI50 [36]: 1280 nM; TGI [36]: 3050 nM; GI50 [37]: 1820 nM; TGI [37]: 3680 nM; GI50 [38]: 2540 nM; TGI [38]: 7650 nM; GI50 [39]: 1740 nM; TGI [39]: 3130 nM; GI50 [40]: 1700 nM; TGI [40]: 3330 nM; GI50 [41]: 1510 nM; TGI [41]: 2920 nM; GI50 [42]: 1530 nM; TGI [42]: 2870 nM; GI50 [43]: 1600 nM; TGI [43]: 3000 nM; GI50 [44]: 1900 nM; TGI [44]: 3760 nM; GI50 [45]: 1960 nM; TGI [45]: 3370 nM; GI50 [46]: 1810 nM; TGI [46]: 3240 nM; GI50 [47]: 1860 nM; TGI [47]: 3640 nM; GI50 [48]: 1590 nM; TGI [48]: 3010 nM; GI50 [49]: 1650 nM; TGI [49]: 3180 nM; GI50 [50]: 1830 nM; TGI [50]: 3290 nM; GI50 [51]: 2110 nM; TGI [51]: 4120 nM; GI50 [52]: 2190 nM; TGI [52]: 5530 nM; GI50 [53]: 2430 nM; TGI [53]: 6960 nM; GI50 [54]: 1810 nM; TGI [54]: 3270 nM; GI50 [55]: 1610 nM; TGI [55]: 2960 nM
